Results taken from patent US6683060B2, “Matrix metalloproteinase and tumor necrosis factor inhibitors” (Advanced Gene Technology Corp., priority 2002, dated 2004).
Like-named read-outs stand apart in the source and are kept apart here.

Assays:
TNFα binding to TNFα-RI = TNFα binding to TNFα-RI (Homo sapiens, UniProt P01375+P19438); assay: Inhibition of binding of biotinylated TNFα to TNFα-RI on coated microtiter plate
Method: 50 μl TNFα-RI at a concentration of 0.25 μg/ml was coated onto each well of a 96-well C-bottom microtiter plate (Nunc) in a 50 mM carbonate buffer (pH 9.5) at 4° C. overnight. The plate was washed 3 times with 200 μl TBST solution composed of 50 mM Tris.HCl (pH 7.35) containing 0.15 M NaCl and 0.05% Tween 20 to remove excess TNFα-RI. 200 μl/well of 0.5% BSA in PBS was added to each plate for blocking of the TNFα-RI. The reaction was carried out at 37° C. for 2 hours followed by washing 4 times with TBST to remove excess BSA.
Compound 1 was serially diluted in TBST solution. Biotinylated TNFα with a concentration of 0.5 μg/ml was mixed with Compound 1 solution in a volume ratio of 1:1. The reaction was allowed to proceed for 30 minutes at 37° C. with shaking at 500 rpm for allowing mixing. The mixtures were then added to the TNFα-RI coated plate, 50 μl for each well. The plate was then incubated at 37° C. for 2 hours with shaking again at 500 rpm, for competitive binding of the biotinylated TNFα and Compound 1.
Followed by washing 4 times with TBST, Extravidin-alkaline phosphatase (Sigma) diluted in TBST (1/5,000) was added to the plate, 50 μl/well. The plate was further incubated at 37° C. for 2 hours and then washed 4 times with TBST. […] After a 30-minute incubation at room temperature, absorbance at the wavelength of 405 nm was measured. […]

[1] = test system: COLO205, PC-3, A375, A549 cell lines; assay: Invasive/metastatic potential of cancer cells, Boyden chemotaxis assay chambers, other four cell lines; format: cell-based, human; details: same concentration ranges as ES-2, data not shown
Method: (§1) COLO205 is a human colon cancer-derived cell line. It was maintained in a RPMI 1640 medium (Hyclone), and supplemented with 10% heat-inactivated FBS.
(§2) PC-3 is a human prostate cancer-derived cell line. It was maintained in a Ham's F12 K medium (Gibco) and supplemented with 7% FBS.
(§3) A375 is a human malignant melanoma-derived cell line. It was maintained in a Dulbecco's modified Eagle's medium (DMEM, Hyclone) and supplemented with 10% FBS, 4 mM L-glutamine, 4.5 g/l glucose, and 1.0 mM sodium pyruvate.
(§4) A549 is a human lung cancer-derived cell line. It was maintained in a F12K medium (Gibco) and supplemented with 10% FBS.
(§5) In this method, Boyden chemotaxis assay chambers (Costar Transwell plates) were used. Each Boyden chemotaxis assay chamber included a top chamber having a filter as the bottom side of the top chamber and a bottom well surrounding the top chamber. The bottom side of the top chamber used here was an 8 μm-pore polycarbonate filter.
0.35 ml of a medium with complete nutrition supplements as a chemo-attractant was added to each bottom well. Cancer cells (2×10^5 in 50 μl) were then plated on the filters in each of the top chambers. […]
After an 18-hour incubation, the cells in the top chambers were carefully emptied with sterile cotton buds. […] After incubating for 4 hours, absorbance (O.D.) was measured at 450 nm with the reference wavelength at 690 nm. […]

ES-2 cells = assay: Invasive/metastatic potential of cancer cells, Boyden chemotaxis assay chambers; format: cell-based, human; details: 18-hour incubation; for IC50: Homo sapiens
Method: (§6) ES-2 is a human ovarian carcinoma. It was maintained in a modified McCoy's 5A medium (Gibco) and supplemented with 10% FBS (fetal bovine serum).
as §5
0.35 ml of a medium with complete nutrition supplements as a chemo-attractant was added to each bottom well. Cancer cells (2×10^5 in 50 μl) were then plated on the filters in each of the top chambers. Compound 1 or uridine was diluted in the serum-free medium to 0.536 mg/ml and then was added to the top chambers, with the volume of 50 μl/chamber. The control tests were performed with 2 μM paclitaxel (positive control) or with medium only (negative control) in the top chambers.
After an 18-hour incubation, the cells in the top chambers were carefully emptied with sterile cotton buds. 100 μl XTT reagent (1 mg/ml) was added to each of the bottom wells. After incubating for 4 hours, absorbance (O.D.) was measured at 450 nm with the reference wavelength at 690 nm. The ratio of the OD from the bottom wells to that of the OD from the bottom wells of the control tests was taken as the invasive potential. Results presented are from three different independent experiments.

[2] = test system: ES-2, COLO205, PC-3, A375, and A549 cell lines; assay: Proliferation/cytotoxicity assay on cancer cell lines (XTT assay); format: cell-based, human; details: 72 hours exposure, five cancer cell lines; for cellular viability (XTT assay): serially two-fold diluted from 0.258 mg/ml, data not shown
Description: Five cancer-derived cell lines obtained from the American Type Culture Collection (ATCC) were used for the following proliferation/cytotoxicity assay. These cell lines are listed as follow:
as §6, §1, §2, §3, §4
To determine the cytotoxicity of Compound 1 or uridine on each cancer cell lines, ES-2, COLO205, PC-3, A375, and A549 cell lines were used. Each cancer cell line at a concentration of 1×10^4 cells/100 μl in each well (Falcon, MicroTest™ 96) was exposed to Compound 1, uridine or 1 μM paclitaxel (taxol, Sigma) for 72 hours in a complete medium. The Compound 1 and uridine were serially two-fold diluted from the concentration of 0.258 mg/ml.
Cellular viability was estimated by the tetrazolium dye reduction assay (XTT assay, Boehringer Mannheim). The amount of XTT reagent (a tetrazolium salt) added to the bottom wells was 100 μl/well and its concentration was 1 mg/ml. The-wells were incubated for 4 hours to allow viable cells to develop color. Absorbance (O.D.) was measured at 450 nm with the reference wavelength at 690 nm.

MMP-2 = molecular target: T1, MMP-2 (Homo sapiens, UniProt P08253); assay: Inhibition of MMP-2 gelatinase activity on microtiter plates (biotinylated gelatin hydrolysis); format: biochemical
T1 construct: The purified enzyme was already an active form with a molecular weight of about 64K; endogenous in cells; host or cells: ES-2 human ovarian carcinoma cells (secreted into serum-free conditioned medium; purified on gelatin-Sepharose 4B)
T1 sequence (P08253 110-660): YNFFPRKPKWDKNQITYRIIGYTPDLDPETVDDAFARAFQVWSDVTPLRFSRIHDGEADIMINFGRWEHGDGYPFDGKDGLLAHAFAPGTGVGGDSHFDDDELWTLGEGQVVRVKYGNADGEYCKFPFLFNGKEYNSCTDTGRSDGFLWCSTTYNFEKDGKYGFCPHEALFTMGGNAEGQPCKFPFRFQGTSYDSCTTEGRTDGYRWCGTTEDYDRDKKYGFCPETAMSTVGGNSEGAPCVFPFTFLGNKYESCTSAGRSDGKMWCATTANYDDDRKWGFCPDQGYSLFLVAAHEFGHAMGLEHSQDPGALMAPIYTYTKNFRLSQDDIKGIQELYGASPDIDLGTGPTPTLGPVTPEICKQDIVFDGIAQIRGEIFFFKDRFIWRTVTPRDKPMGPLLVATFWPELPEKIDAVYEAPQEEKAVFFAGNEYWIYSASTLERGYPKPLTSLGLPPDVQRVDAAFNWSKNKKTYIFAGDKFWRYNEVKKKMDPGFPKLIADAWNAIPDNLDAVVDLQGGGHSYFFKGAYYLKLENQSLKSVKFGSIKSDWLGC
Method: The MMP-2 enzyme was obtained from cancer cells and then purified by using gelatin-Sephose 4B (Pharmacia). Serum-free conditioned medium from human ovarian carcinoma cells, ES-2, was concentrated 50-fold and then MMP-2 enzyme was obtained by ultrafiltration using a 30,000 MW (molecular weight) cut-off membrane (YM-30, Amicon). The affinity matrix was equilibrated with an equilibration buffer, which was composed of 50 mM Tris.HCl (pH7.6), 10 mM EDTA and 0.01% Tween 20, containing 0.5 M NaCl. After extensive washing with the equilibration buffer containing 0.5 M NaCl, the bound enzyme was eluted with the equilibration buffer containing 1 M NaCl. […]
The plates were then read at 450 nm (reference length 470 nm) in a microtiter plate reader (Dynex, MRX). The absorbance at 450 nm […] as the concentration of MMP-2 […]. […] Therefore, in the reaction of BG with MMP-2, the absorbance should be a factor 3-5 times lower than an absorbance reading of BG without MMP-2 enzyme (a gelatinase). […]
The effect of Compound 1 on MMP-2 activity was measured by basically the same procedure as described in the section, GELATINASE ASSAY ON MICROTITER PLATES. As Compound 1 was similar to uridine in chemical structure, the effect of a commercial available uridine (Sigma, U-3750, D-Ribose) on MMP-2 activity was also measured for comparison in the experiment. […]

TNFα binding to TNFα-RI, sequence (P01375 77-233 limits assumed): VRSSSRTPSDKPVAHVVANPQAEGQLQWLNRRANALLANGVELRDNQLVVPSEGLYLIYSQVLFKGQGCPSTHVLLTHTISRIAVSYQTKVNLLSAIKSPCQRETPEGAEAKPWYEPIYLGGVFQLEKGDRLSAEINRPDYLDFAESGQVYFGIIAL
TNFα binding to TNFα-RI, sequence (P19438 22-211 limits assumed): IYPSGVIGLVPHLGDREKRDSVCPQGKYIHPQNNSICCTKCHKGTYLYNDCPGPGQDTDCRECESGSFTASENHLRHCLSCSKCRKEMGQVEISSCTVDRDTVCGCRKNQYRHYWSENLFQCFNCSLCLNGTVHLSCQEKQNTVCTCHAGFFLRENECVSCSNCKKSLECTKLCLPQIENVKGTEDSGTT

| SMILES | inhibition activity on TNFα binding to TNFα-RI compared with Suramin (TNFα binding to TNFα-RI; FIG. 6, Suramin as comparative compound) | IC50 (TNFα binding to TNFα-RI; biotinylated TNFα 0.5 μg/ml mixed 1:1 with compound, TNFα-RI coated plate, read-out: 50% inhibitory dose (IC50) on TNFα binding to TNFα-RI) [µM] | effect on invasive potential [1] | IC50 (ES-2 cells; XTT readout of bottom wells, read-out: 50% inhibitory dose (IC50) on invasive potential) [µg/mL] | IC50 (ES-2 cells; printed conversion of 23 μg/ml, read-out: 50% inhibitory dose (IC50) on invasive potential, converted to molar) [µM] | cellular viability (XTT assay) [2] | IC50 (MMP-2; purified MMP-2 from ES-2 conditioned medium, biotinylated gelatin substrate, read-out: 50% inhibitory dose (IC50) on MMP-2 activity) [µM] | inhibition of cell proliferation (XTT assay) ([2]; paclitaxel positive control) | effect on invasive potential (ES-2 cells; data not shown) | inhibitory activity to MMP-2 (MMP-2; at the concentration of 0.82 mM, data not shown) |
| --- | --- | --- | --- | --- | --- | --- | --- | --- | --- | --- |
| O=c1ccn(C2OC(CCO)C(O)C2O)c(=O)[nH]1 (stereo not drawn) [Compound 1, 1-[3,4-dihydroxy-5-(2-hydroxyethyl)tetrahydrofuran-2-yl]pyrimidine-2,4(1H,3H)-dione] | smaller than that of Suramin | 50 | not significantly affected | 23 | 90 | did not reduce cellular viability | 150 | – | – | – |
| CC(=O)O[C@H]1C(=O)[C@@]2(C)[C@H]([C@H](OC(=O)c3ccccc3)[C@]3(O)C[C@H](OC(=O)[C@H](O)[C@@H](NC(=O)c4ccccc4)c4ccccc4)C(C)=C1C3(C)C)[C@]1(OC(C)=O)CO[C@@H]1C[C@@H]2O [paclitaxel] | – | – | – | – | – | – | – | inhibition of cell proliferation was proportional to the concentration of paclitaxel | – | – |
| O=c1ccn([C@@H]2O[C@H](CO)[C@@H](O)[C@H]2O)c(=O)[nH]1 [uridine, reference compound] | – | – | did not show any effect | – | – | did not reduce cellular viability | – | – | did not show any effect | no inhibitory activity |
